Results as given in PubChem BioAssay AID256 (DTP/NCI, 2004).
Where “and” joins values, the source holds several entries; their conditions need not be identical. Equal values may be shown once. Inconclusive results and toxic doses are left out. How the source made its calls: active means survival T/C of 150% or more; inactive means T/C below 125% in these data.

Test system: CD2F1 mice, L1210 leukemia ip, survival T/C
Assay: NCI In Vivo Anticancer Drug Screen. Data for tumor model L1210 Leukemia (intraperitoneal) in CD2F1 (CDF1) mice
Conditions: higher = longer survival
Procedure, shortened: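 Compound-dosed mice with transplantable tumor versus matched vehicle controls; endpoint ratio T/C reported.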

[1] = endpoint: mean survival time, dose: 100.0 mg/kg/injection, schedule: Q01DX009 (ip), vehicle: saline with Tween-80
[2] = endpoint: mean survival time, dose: 100.0 mg/kg/injection, schedule: Q04DX003 (ip), vehicle: saline with Tween-80
[3] = endpoint: mean survival time, dose: 200.0 mg/kg/injection, schedule: Q01DX009 (ip), vehicle: saline with Tween-80
[4] = endpoint: mean survival time, dose: 400.0 mg/kg/injection, schedule: Q01DX009 (ip), vehicle: saline with Tween-80
[5] = endpoint: mean survival time, dose: 100.0 mg/kg/injection, schedule: Q01DX001 (ip), vehicle: saline with Tween-80
[6] = endpoint: mean survival time, dose: 200.0 mg/kg/injection, schedule: Q01DX001 (ip), vehicle: saline with Tween-80
[7] = endpoint: mean survival time, dose: 400.0 mg/kg/injection, schedule: Q01DX001 (ip), vehicle: saline with Tween-80
[8] = endpoint: mean survival time, dose: 100.0 mg/kg/injection, schedule: Q04DX003 (ip), vehicle: saline
[9] = endpoint: mean survival time, dose: 200.0 mg/kg/injection, schedule: Q04DX003 (ip), vehicle: saline
[10] = endpoint: mean survival time, dose: 400.0 mg/kg/injection, schedule: Q04DX003 (ip), vehicle: saline
[11] = endpoint: mean survival time, dose: 200.0 mg/kg/injection, schedule: Q04DX003 (ip), vehicle: saline with Tween-80
[12] = endpoint: mean survival time, dose: 400.0 mg/kg/injection, schedule: Q04DX003 (ip), vehicle: saline with Tween-80

Measured: T/C

Nc1nc(N)c(N)c(N)n1
inactive: endpoint: mean survival time, dose: 75.0 mg/kg/injection, schedule: Q01DX001 (ip), vehicle: saline with Tween-80 94 % of control | [1] 90 % of control | [2] 98 % of control | endpoint: mean survival time, dose: 150.0 mg/kg/injection, schedule: Q01DX001 (ip), vehicle: saline with Tween-80 101 % of control | [3] 104 % of control | endpoint: mean survival time, dose: 300.0 mg/kg/injection, schedule: Q01DX001 (ip), vehicle: saline with Tween-80 103 % of control | [4] 93 % of control

CCCSCC(CSCCC)(CSCCC)CSCCC
inactive: [5] 107 % of control | [6] 111 % of control | [7] 101 % of control

O=C(OC1C=Cc2ccccc21)c1ccc([N+](=O)[O-])cc1 (stereo unspecified)
inactive: [5] 97 % of control | [6] 90 % of control | [7] 97 % of control

CCC(=O)c1ccc(O)c(O)c1
inactive: endpoint: mean survival time, dose: 25.0 mg/kg/injection, schedule: Q01DX009 (ip), vehicle: saline with Tween-80 95 % of control | endpoint: mean survival time, dose: 50.0 mg/kg/injection, schedule: Q01DX009 (ip), vehicle: saline with Tween-80 96 % of control | [1] 96 % of control and 100 % of control | [8] 96 % of control | [9] 105 % of control | [10] 92 % of control

CCOP(=O)(OCC)C1=C(SCC)C(F)(F)C(F)(F)C1(F)F
inactive: endpoint: mean survival time, dose: 75.0 mg/kg/injection, schedule: Q01DX001 (ip), vehicle: other 104 % of control

O=[N+]([O-])c1cc2c(c([N+](=O)[O-])c1)OCOC2
inactive: [1] 105 % of control | [3] 96 % of control

Cc1cc2c(-c3ccccc3)c(-c3ccccc3)oc(=O)c2cc1C
inactive: [2] 95 % of control | [11] 90 % of control | [12] 92 % of control

C[n+]1ccccc1
inactive: endpoint: mean survival time, dose: 100.0 mg/kg/injection, schedule: Q01DX009 (ip), vehicle: saline 97 % of control | endpoint: mean survival time, dose: 100.0 mg/kg/injection, schedule: Q04DX002 (ip), vehicle: other 96 % of control | endpoint: mean survival time, dose: 200.0 mg/kg/injection, schedule: Q01DX009 (ip), vehicle: saline 101 % of control | endpoint: mean survival time, dose: 200.0 mg/kg/injection, schedule: Q04DX002 (ip), vehicle: other 93 % of control | endpoint: mean survival time, dose: 400.0 mg/kg/injection, schedule: Q01DX009 (ip), vehicle: saline 97 % of control | endpoint: mean survival time, dose: 400.0 mg/kg/injection, schedule: Q04DX002 (ip), vehicle: other 96 % of control

COc1cccc2c1C(=O)c1c(O)c3c(c(O)c1C2=O)C[C@@](O)(C(=O)COC(=O)Cc1ccccc1)C[C@@H]3OC1CC(N)C(O)C(C)O1 (stereo partly specified)
active: endpoint: mean survival time, dose: 10.0 mg/kg/injection, schedule: Q04DX003 (ip), vehicle: saline with Tween-80 158 % of control
inactive: endpoint: mean survival time, dose: 0.5 mg/kg/injection, schedule: Q01DX009 (ip), vehicle: saline with Tween-80 123 % of control | endpoint: mean survival time, dose: 1.32 mg/kg/injection, schedule: Q01DX009 (ip), vehicle: saline 118 % of control | endpoint: mean survival time, dose: 2.0 mg/kg/injection, schedule: Q01DX009 (ip), vehicle: saline 114 % of control | endpoint: mean survival time, dose: 3.0 mg/kg/injection, schedule: Q01DX009 (ip), vehicle: saline 117 % of control | endpoint: mean survival time, dose: 8.0 mg/kg/injection, schedule: Q01DX009 (ip), vehicle: saline with Tween-80 96 % of control | endpoint: mean survival time, dose: 20.0 mg/kg/injection, schedule: Q01DX001 (ip), vehicle: saline with Tween-80 107 % of control | endpoint: mean survival time, dose: 20.0 mg/kg/injection, schedule: Q04DX003 (ip), vehicle: saline with Tween-80 102 % of control

CC(C)(C)OC(=O)NC(Cc1ccc(OCc2ccccc2)cc1)C(=O)O (stereo unspecified)
inactive: [2] 95 % of control | [11] 101 % of control

c1ccc(P(c2cccc3ccccc23)c2cccc3ccccc23)cc1
inactive: endpoint: mean survival time, dose: 100.0 mg/kg/injection, schedule: Q01DX001 (ip), vehicle: saline 93 % of control | endpoint: mean survival time, dose: 200.0 mg/kg/injection, schedule: Q01DX001 (ip), vehicle: saline 93 % of control | endpoint: mean survival time, dose: 400.0 mg/kg/injection, schedule: Q01DX001 (ip), vehicle: saline 91 % of control

O=S(=O)(F)c1ccc2nc(-c3cccc(Sc4ccccc4)c3)cc(Cl)c2c1
inactive: [1] 97 % of control | [2] 97 % of control | [3] 93 % of control | [11] 90 % of control | [4] 97 % of control | [12] 96 % of control

CN(CN1C(=O)CCC1=O)CN1C(=O)CCC1=O
inactive: endpoint: median survival time, dose: 50.0 mg/kg/injection, schedule: Q01DX005 (ip), vehicle: saline 105 % of control | endpoint: median survival time, dose: 100.0 mg/kg/injection, schedule: Q01DX005 (ip), vehicle: saline 113 % of control | endpoint: median survival time, dose: 200.0 mg/kg/injection, schedule: Q01DX005 (ip), vehicle: saline 121 % of control | endpoint: median survival time, dose: 400.0 mg/kg/injection, schedule: Q01DX005 (ip), vehicle: saline 121 % of control

CCCCCCC(=O)CC(SCC)c1ccccc1Cl (stereo unspecified)
inactive: endpoint: median survival time, dose: 25.0 mg/kg/injection, schedule: Q01DX009 (ip), vehicle: saline with Tween-80 100 % of control | endpoint: median survival time, dose: 50.0 mg/kg/injection, schedule: Q01DX009 (ip), vehicle: saline with Tween-80 104 % of control | endpoint: median survival time, dose: 100.0 mg/kg/injection, schedule: Q01DX009 (ip), vehicle: saline with Tween-80 100 % of control | endpoint: median survival time, dose: 200.0 mg/kg/injection, schedule: Q01DX009 (ip), vehicle: saline with Tween-80 97 % of control | endpoint: median survival time, dose: 400.0 mg/kg/injection, schedule: Q01DX009 (ip), vehicle: saline with Tween-80 98 % of control

O=C1CC2CCC1C2 (stereo unspecified)
inactive: endpoint: mean survival time, dose: 25.0 mg/kg/injection, schedule: Q04DX003 (ip), vehicle: Klucel (hydroxypropylcellulose) (HPC) 97 % of control | endpoint: mean survival time, dose: 50.0 mg/kg/injection, schedule: Q04DX003 (ip), vehicle: Klucel (hydroxypropylcellulose) (HPC) 98 % of control | endpoint: mean survival time, dose: 100.0 mg/kg/injection, schedule: Q04DX003 (ip), vehicle: Klucel (hydroxypropylcellulose) (HPC) 97 % of control

O=S(=O)(F)c1cccc(Cl)c1C[P+](c1ccccc1)(c1ccccc1)c1ccccc1
inactive: endpoint: mean survival time, dose: 12.5 mg/kg/injection, schedule: Q01DX001 (ip), vehicle: Klucel (hydroxypropylcellulose) (HPC) 103 % of control | endpoint: mean survival time, dose: 25.0 mg/kg/injection, schedule: Q01DX001 (ip), vehicle: Klucel (hydroxypropylcellulose) (HPC) 115 % of control

CNC(=S)N(C)c1nc(C)cs1
inactive: endpoint: mean survival time, dose: 100.0 mg/kg/injection, schedule: Q04DX002 (ip), vehicle: saline with Tween-80 91 % of control | endpoint: mean survival time, dose: 200.0 mg/kg/injection, schedule: Q04DX002 (ip), vehicle: saline with Tween-80 95 % of control | endpoint: mean survival time, dose: 400.0 mg/kg/injection, schedule: Q04DX002 (ip), vehicle: saline with Tween-80 103 % of control

CCCCCCCCS
inactive: [1] 100 % of control | [3] 91 % of control | [4] 92 % of control

COC(=C\c1ccccc1)/C(=N/Nc1ccc([N+](=O)[O-])cc1[N+](=O)[O-])c1ccccc1
inactive: [5] 101 % of control | [6] 109 % of control | [7] 109 % of control

O/N=C\C[n+]1cc2ccccc2cc1/C=N\O
inactive: endpoint: mean survival time, dose: 12.5 mg/kg/injection, schedule: Q04DX003 (ip), vehicle: saline 93 % of control | endpoint: mean survival time, dose: 25.0 mg/kg/injection, schedule: Q04DX003 (ip), vehicle: saline 101 % of control | endpoint: mean survival time, dose: 50.0 mg/kg/injection, schedule: Q04DX003 (ip), vehicle: saline 90 % of control

CCC(=O)c1cc(OC)cc(OC)c1
inactive: [8] 100 % of control | [9] 101 % of control | [10] 103 % of control

CCOC(=O)Nc1cc(N)c2ncc(-c3ccc(Cl)cc3)nc2n1
inactive: [2] 91 % of control | [11] 91 % of control | [12] 95 % of control

C=CCC(C(=O)OC)(C(=O)OC)c1ccc(OC)c(OC)c1
inactive: endpoint: mean survival time, dose: 75.0 mg/kg/injection, schedule: Q01DX001 (ip), vehicle: saline 100 % of control | endpoint: mean survival time, dose: 150.0 mg/kg/injection, schedule: Q01DX001 (ip), vehicle: saline 96 % of control | endpoint: mean survival time, dose: 300.0 mg/kg/injection, schedule: Q01DX001 (ip), vehicle: saline 98 % of control

C/C=C(/Cl)C(=O)O
inactive: [5] 100 % of control | [6] 101 % of control

Cc1ccccc1NCc1ccccc1
inactive: endpoint: mean survival time, dose: 100.0 mg/kg/injection, schedule: Q04DX003 (ip), vehicle: other 101 % of control | endpoint: mean survival time, dose: 200.0 mg/kg/injection, schedule: Q04DX003 (ip), vehicle: other 103 % of control | endpoint: mean survival time, dose: 400.0 mg/kg/injection, schedule: Q04DX003 (ip), vehicle: other 100 % of control

O=S(=O)(c1cccc(N=C=S)c1)c1cccc(N=C=S)c1
inactive: endpoint: median survival time, dose: 6.25 mg/kg/injection, schedule: Q01DX009 (ip), vehicle: Klucel (hydroxypropylcellulose) (HPC) 101 % of control | endpoint: median survival time, dose: 12.5 mg/kg/injection, schedule: Q01DX009 (ip), vehicle: Klucel (hydroxypropylcellulose) (HPC) 109 % of control | endpoint: median survival time, dose: 25.0 mg/kg/injection, schedule: Q01DX009 (ip), vehicle: Klucel (hydroxypropylcellulose) (HPC) 118 % of control

CCCCCCCCCCCCCCCCSSCCCCCCCCCCCCCCCC
inactive: [2] 88 % of control | [11] 88 % of control | [12] 92 % of control
